Source: ChEMBL document CHEMBL2010698 (J Med Chem, 2012)

Columns and labels:
[1] = in vitro; conditions: pig, PAMPA
Description: Permeability across porcine brain lipid layer after 240 mins by PAMPA-BBB assay

[2] = molecular target: T1, Cholinesterase (Homo sapiens, UniProt P06276); experiment: Ratio of (+/-)-huprine Y IC50 to compound IC50 for human serum BChE
[3] = molecular target: T2, Acetylcholinesterase (Homo sapiens, UniProt P22303)
Description: Inhibition of human recombinant AChE using acetylthiocholine iodide as substrate preincubated for 20 mins prior substrate addition measured after 5 mins by spectrophotometry

[4] = molecular target: T1, Cholinesterase
Description: Inhibition of human serum BChE using butyrylthiocholine iodide as substrate preincubated for 20 mins prior substrate addition measured after 5 mins by spectrophotometry

[5] = Inhibition of self-induced Abeta1-42 aggregation after 24 hrs by thioflavin T fluorescence method
[6] = molecular target: T3, Beta-secretase 1 (Homo sapiens, UniProt P56817); conditions: 5 uM
T3 sequence (P56817 whole entry): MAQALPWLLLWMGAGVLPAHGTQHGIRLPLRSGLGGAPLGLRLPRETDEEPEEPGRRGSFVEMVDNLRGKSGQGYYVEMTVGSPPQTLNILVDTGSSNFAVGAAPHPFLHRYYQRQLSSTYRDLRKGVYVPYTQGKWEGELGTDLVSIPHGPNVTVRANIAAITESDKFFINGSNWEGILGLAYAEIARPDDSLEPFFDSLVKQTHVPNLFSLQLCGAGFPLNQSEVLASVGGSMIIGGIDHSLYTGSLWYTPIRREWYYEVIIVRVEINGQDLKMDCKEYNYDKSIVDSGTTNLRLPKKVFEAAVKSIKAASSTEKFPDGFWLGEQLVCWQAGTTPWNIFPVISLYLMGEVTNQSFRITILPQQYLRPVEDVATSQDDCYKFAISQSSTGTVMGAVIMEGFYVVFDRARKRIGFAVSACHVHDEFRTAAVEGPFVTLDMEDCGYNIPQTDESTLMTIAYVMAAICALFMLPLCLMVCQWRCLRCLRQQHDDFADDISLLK
Description: Inhibition of human recombinant BACE-1 using panvera peptide as substrate at 5 uM preincubated for 60 mins prior substrate addition measured after 60 mins by spectrofluorimetry

[7] = molecular target: T4, Acetylcholinesterase (Bos taurus, UniProt P23795); experiment: Inhibition of bovine AChE-induced coumarin-tagged PrP106-126 aggregation after 48 hrs by fluorescence microscopy
T4 sequence (P23795 whole entry): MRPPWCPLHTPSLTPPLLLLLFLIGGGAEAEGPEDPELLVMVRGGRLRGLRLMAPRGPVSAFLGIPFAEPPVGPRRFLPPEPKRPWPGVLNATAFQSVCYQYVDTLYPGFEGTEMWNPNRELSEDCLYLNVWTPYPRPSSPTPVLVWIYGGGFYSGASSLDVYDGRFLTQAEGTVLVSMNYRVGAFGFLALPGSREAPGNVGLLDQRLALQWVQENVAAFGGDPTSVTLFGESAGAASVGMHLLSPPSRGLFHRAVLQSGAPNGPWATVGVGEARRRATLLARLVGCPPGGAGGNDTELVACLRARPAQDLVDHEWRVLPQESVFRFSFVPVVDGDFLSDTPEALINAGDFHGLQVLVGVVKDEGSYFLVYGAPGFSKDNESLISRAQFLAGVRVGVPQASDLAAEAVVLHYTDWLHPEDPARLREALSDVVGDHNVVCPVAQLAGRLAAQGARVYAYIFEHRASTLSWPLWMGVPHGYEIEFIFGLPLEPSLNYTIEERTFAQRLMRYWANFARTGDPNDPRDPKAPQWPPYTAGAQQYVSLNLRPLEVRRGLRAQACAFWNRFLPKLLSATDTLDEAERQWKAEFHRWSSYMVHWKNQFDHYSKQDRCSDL

[8] = molecular target: T3, Beta-secretase 1; experiment: Inhibition of human recombinant BACE-1 using M-2420 as substrate preincubated for 1 hr prior substrate addition measured after 15 mins by spectrofluorimetry
[9] = species: Mus musculus; experiment: animal or person; conditions: OF1, Brain, ip, 20 min, read-out: INH
[10] = molecular target: T2, Acetylcholinesterase; remark: listed apart in the source
Description: Competitive inhibition of human recombinant AChE by Lineweaver-Burk plot analysis

[11] = molecular target: T2, Acetylcholinesterase; experiment: Inhibition of human recombinant AChE-induced Abeta1-40 aggregation by thioflavin T fluorescence method

T2 sequence (P22303 whole entry): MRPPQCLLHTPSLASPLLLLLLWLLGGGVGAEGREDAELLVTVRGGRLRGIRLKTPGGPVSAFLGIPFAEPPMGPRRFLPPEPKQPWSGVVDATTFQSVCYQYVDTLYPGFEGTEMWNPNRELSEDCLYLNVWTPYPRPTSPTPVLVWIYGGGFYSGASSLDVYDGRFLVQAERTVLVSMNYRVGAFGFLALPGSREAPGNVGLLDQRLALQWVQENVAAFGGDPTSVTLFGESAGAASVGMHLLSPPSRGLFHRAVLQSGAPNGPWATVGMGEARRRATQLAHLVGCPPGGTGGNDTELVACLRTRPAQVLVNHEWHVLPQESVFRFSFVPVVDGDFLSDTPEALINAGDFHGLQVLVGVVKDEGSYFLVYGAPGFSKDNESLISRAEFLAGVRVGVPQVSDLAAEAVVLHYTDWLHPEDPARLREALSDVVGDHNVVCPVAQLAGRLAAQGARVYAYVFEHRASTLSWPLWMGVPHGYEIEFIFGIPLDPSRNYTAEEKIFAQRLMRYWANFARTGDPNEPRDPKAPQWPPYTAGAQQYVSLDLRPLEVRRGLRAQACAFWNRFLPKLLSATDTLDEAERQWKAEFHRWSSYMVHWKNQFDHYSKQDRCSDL
T1 sequence (P06276 whole entry): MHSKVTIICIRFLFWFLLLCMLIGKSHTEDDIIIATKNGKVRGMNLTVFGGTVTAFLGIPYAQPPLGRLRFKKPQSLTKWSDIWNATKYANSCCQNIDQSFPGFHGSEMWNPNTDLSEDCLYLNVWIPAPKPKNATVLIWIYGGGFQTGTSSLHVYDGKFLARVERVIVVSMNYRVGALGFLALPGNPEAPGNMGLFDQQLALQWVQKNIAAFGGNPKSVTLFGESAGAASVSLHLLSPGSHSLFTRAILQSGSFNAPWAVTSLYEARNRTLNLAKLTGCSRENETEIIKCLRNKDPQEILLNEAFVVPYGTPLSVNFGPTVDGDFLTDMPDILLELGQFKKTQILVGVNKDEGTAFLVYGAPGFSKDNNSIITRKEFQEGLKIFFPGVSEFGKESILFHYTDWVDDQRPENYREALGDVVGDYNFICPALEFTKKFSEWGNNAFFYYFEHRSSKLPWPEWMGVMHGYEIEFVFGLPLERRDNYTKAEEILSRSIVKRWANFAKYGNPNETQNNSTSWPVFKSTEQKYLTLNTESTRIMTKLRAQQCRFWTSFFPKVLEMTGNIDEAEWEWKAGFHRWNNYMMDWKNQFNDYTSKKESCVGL

Structure (SMILES): CC1=CC2Cc3nc4cc(Cl)ccc4c(NCCCCCCNc4c5c(nc6ccccc46)CCCC5)c3C(C1)C2.Cl (racemic)
- Papp at 4 h [1]: 10.7 ×10⁻⁶ cm/s
- Ratio IC50 [2]: 6
- IC50 [3]: 0.89 nM
- IC50 [4]: 24.6 nM

Structure (SMILES): CC1=CC2Cc3nc4cc(Cl)ccc4c(NCCCCCCNc4c5c(nc6cc(Cl)ccc46)CCCC5)c3C(C1)C2.Cl (racemic)
- Papp at 4 h [1]: 12 ×10⁻⁶ cm/s
- IC50 [3]: 0.74 nM
- IC50 [4]: 75.2 nM

Structure (SMILES): CC1=CC2Cc3nc4cc(Cl)ccc4c(NCCCN(C)CCCNc4c5c(nc6cc(Cl)ccc46)CCCC5)c3C(C1)C2.Cl (racemic)
- Papp at 4 h [1]: 7 ×10⁻⁶ cm/s
- IC50 [3]: 0.31 nM
- IC50 [4]: 51.3 nM

Structure (SMILES): CC1=C[C@H]2Cc3nc4cc(Cl)ccc4c(NCCCCCCCNc4c5c(nc6ccccc46)CCCC5)c3[C@@H](C1)C2
- IC50 [5]: ≤ 10000 nM
- IC50 [3]: 6.84 nM
- IC50 [4]: 139 nM

Structure (SMILES): CC1=C[C@@H]2Cc3nc4cc(Cl)ccc4c(NCCCCCCCNc4c5c(nc6ccccc46)CCCC5)c3[C@H](C1)C2
- IC50 [5]: ≤ 10000 nM
- IC50 [3]: 1.33 nM
- IC50 [4]: 133 nM

Structure (SMILES): CC1=C[C@@H]2Cc3nc4cc(Cl)ccc4c(N)c3[C@H](C1)C2
- inhibition [6]: 14%

Structure (SMILES): CC1=CC2Cc3nc4cc(Cl)ccc4c(N)c3C(C1)C2 (racemic)
- IC50 [4]: 175 nM

Structure (SMILES): CC1=CC2Cc3nc4cc(Cl)ccc4c(NCCCCCCCNc4c5c(nc6ccccc46)CCCC5)c3C(C1)C2.Cl.Cl.Cl (racemic)
- Papp at 4 h [1]: 12.5 ×10⁻⁶ cm/s
- IC50 [5]: ≤ 10000 nM
- IC50 [3]: 1.89 nM
- IC50 [4]: 87.1 nM

Structure (SMILES): CC1=CC2Cc3nc4cc(Cl)ccc4c(NCCCN(C)CCCNc4c5c(nc6ccccc46)CCCC5)c3C(C1)C2.Cl (racemic)
- Papp at 4 h [1]: 11.4 ×10⁻⁶ cm/s
- IC50 [3]: 0.42 nM
- IC50 [4]: 44.2 nM

Structure (SMILES): CC1=CC2Cc3nc4cc(Cl)ccc4c(NCCCCCCCCCNc4c5c(nc6ccccc46)CCCC5)c3C(C1)C2.Cl.Cl.Cl (racemic)
- Papp at 4 h [1]: 6 ×10⁻⁶ cm/s

Structure (SMILES): CC1=CC2Cc3nc4cc(Cl)ccc4c(NCCCCCCCCNc4c5c(nc6cc(Cl)ccc46)CCCC5)c3C(C1)C2.Cl (racemic)
- IC50 [7]: 263 nM
- IC50 [8]: 4900 nM
- Papp at 4 h [1]: 21.1 ×10⁻⁶ cm/s
- inhibition in vivo at 10 µmol/kg [9]: 28.5%
- IC50 [3]: 1.32 nM
- IC50 [4]: 35.1 nM

Structure (SMILES): CC1=C[C@@H]2Cc3nc4cc(Cl)ccc4c(NCCCCCCCNc4c5c(nc6cc(Cl)ccc46)CCCC5)c3[C@H](C1)C2
- IC50 [8]: 5700 nM
- IC50 [3]: 2.04 nM
- Kic [10]: 1.51 nM
- IC50 [4]: 86.8 nM

Structure (SMILES): CC1=CC2Cc3nc4cc(Cl)ccc4c(NCCCCCCCNc4c5c(nc6cc(Cl)ccc46)CCCC5)c3C(C1)C2.Cl.Cl.Cl.Cl (racemic)
- Papp at 4 h [1]: 20.9 ×10⁻⁶ cm/s
- IC50 [3]: 4.02 nM
- IC50 [4]: 73.3 nM

Structure (SMILES): CC1=CC2Cc3nc4cc(Cl)ccc4c(NCCCCCCCCCCNc4c5c(nc6ccccc46)CCCC5)c3C(C1)C2.Cl.Cl.Cl (racemic)
- IC50 [8]: 7300 nM
- Papp at 4 h [1]: 16.3 ×10⁻⁶ cm/s
- Ratio IC50 [2]: 6
- IC50 [3]: 4.19 nM
- IC50 [4]: 26.6 nM

Structure (SMILES): CC1=C[C@H]2Cc3nc4cc(Cl)ccc4c(NCCCCCCCNc4c5c(nc6cc(Cl)ccc46)CCCC5)c3[C@@H](C1)C2
- IC50 [8]: 5900 nM
- IC50 [3]: 11.5 nM
- IC50 [4]: 47.4 nM

Structure (SMILES): CC1=CC2Cc3nc4cc(Cl)ccc4c(NCCCCCCCCCNc4c5c(nc6cc(Cl)ccc46)CCCC5)c3C(C1)C2.Cl.Cl.Cl.Cl (racemic)
- IC50 [8]: 5800 nM
- Papp at 4 h [1]: 15.6 ×10⁻⁶ cm/s
- Ratio IC50 [2]: 6
- IC50 [3]: 3.26 nM
- IC50 [4]: 27.2 nM

Structure (SMILES): CC1=CC2Cc3nc4cc(Cl)ccc4c(NCCCCCCCCCCNc4c5c(nc6cc(Cl)ccc46)CCCC5)c3C(C1)C2.Cl.Cl.Cl.Cl (racemic)
- IC50 [8]: 6600 nM
- Papp at 4 h [1]: 29.1 ×10⁻⁶ cm/s
- IC50 [3]: 9.09 nM
- IC50 [4]: 76.6 nM

Structure (SMILES): CC1=C[C@H]2Cc3nc4cc(Cl)ccc4c(N)c3[C@@H](C1)C2
- inhibition [6]: 13.6%

Structure (SMILES): CC1=CC2Cc3nc4cc(Cl)ccc4c(NCCCCCCCCNc4c5c(nc6ccccc46)CCCC5)c3C(C1)C2.Cl (racemic)
- IC50 [7]: 68.7 nM
- Papp at 4 h [1]: 10.2 ×10⁻⁶ cm/s
- IC50 [5]: ≤ 10000 nM
- inhibition in vivo at 10 µmol/kg [9]: 30%
- IC50 [3]: 1.38 nM
- IC50 [4]: 74.2 nM
- IC50 [11]: 61300 nM
